For one experiment, the system named is MNTB neurons. Nature of the experiment: High-voltage activated potassium currents in MNTB neurons, in vitro. It is filed as cell-based, mouse. Particulars: 1 mM. As for the experimental part:
Male CBA/Ca mice (aged 12-16 days) were used in these experiments (in accordance with the UK Animals Scientific Procedures Act, 1986). Brain slices containing the medial nucleus of the trapezoid body (MNTB) were prepared as described previously (Brew and Forsythe, 2005).
Chemicals and reagents were purchased from Sigma, (Poole, UK) unless otherwise noted. Reference Example RE1 was dissolved in DMSO and diluted in ACSF to the required concentration.
Recordings from identified MNTB neurons were conducted as previously described (Brew and Forsythe, 2005). Slices was placed in a superfusion chamber on an inverted microscope stage and continuously perfused with gassed (95% O2-5% CO2) ACSF at a rate of 1 ml min-1 at room temperature. Whole-cell recordings were made from visually identified MNTB neurons using an […] amplifier (Molecular Devices, Union City, Calif., USA). Patch solution comprised (in mM) potassium gluconate (97.5), KCl (32.5), Hepes (40), EGTA (5), MgCl2 (1), Na2phosphocreatin (5), pH 7.2 with KOH. Pipettes had resistances of 3-5 MΩ and series resistances were 6-10 MΩ (compensated by 70%, 10 μs lag). Access resistance was frequently monitored and the recording discarded if increases were more than 2 MΩ. […]

Experiment [1] has as its system parvalbumin-positive interneurons in the somatosensory cortex. Nature of the experiment: Firing of parvalbumin-positive interneurons in somatosensory cortex slices, in vitro. Particulars: 0.5 mM, vs control slices (0.1% DMSO). It is filed as cell-based, mouse.
Another experiment relates to Kv3 channels. Conditions: cited from earlier work.

The structures appear in SMILES notation.

As to `CC[N+](CC)(CC)CC` [TEA, Tetraethylammonium, reference compound], the “amplitude of outward high voltage-activated potassium currents evoked by voltage steps to +40 mV” value in the experiment with MNTB neurons is listed as “significantly reduced”. Further, in experiment [1], the action potential half-width entry was “significantly increased” and the “maximal frequency of action potential firing in response to step currents” value is on record as “fired at a lower maximal frequency”. Further, in the experiment on Kv3 channels, the “inhibition of Kv3 channels” value was “inhibit the channels at low millimolar concentrations”.

Source of the values: patent publication US11197859B2 (AUTIFONY THERAPEUTICS LIMITED, priority 2010, dated 2021).
